Structures can show the parent of a compound that is named as a salt. Where two headings read alike, the source gives them in different places.
Assays:
[1] = Water activity studies between crystalline forms; assay type: physicochemical
Method: (§1) Other Crystalline Forms of Example 1: Form P22C: prepared by heating Form HI.5-1 ({drug6b}) at 60°C for 2 hours or at 75°C for 5 minutes. […] Form P33 ({drug6c}): Form HI.5-1 ({drug6b}) converted to Form P33 ({drug6c}) between 50°C and 75°C in variable temperature PXRD experiment. […] Form P35: Prepared from slurry of Form HI.5-1 ({drug6b}) in dry MeOH under molecular sieves (7% RH). Converted to Form P33 ({drug6c}) when dried at 60°C. Stability in Water Slurry: An aqueous slurry of Example 1 was prepared and stored at room temperature. […] The hemisulfate salt of Compound (VI) has the surprising advantage of providing a salt that is physically stable and chemically stable compared to other salts of Compound (VI). Further, the hemisulfate salt had the surprising advantage of being provided in a stable crystalline form, Form HI.5-1 ({drug6b}).

[2] = Moisture sorption isotherm of Example 1; assay type: physicochemical; settings: 25°C
Text: Example 1 has moisture sorption weight gains of 0.8 weight % and 2.8 weight % between 25% and 75% relative humidity and 5% and 95% relative humidity, respectively. […] PXRD Peak Positions (degrees 2Θ±0.1):
The hemisulfate salt of Compound (VI) has the surprising advantage of reducing the variability in the bioavailability of Compound (VI) and/or increasing the bioavailability of Compound (VI) to the patient. Based on these in vitro and in vivo data, it is expected that the hemisulfate will provide a significant advantage of consistency in bioavailability among patients over the free form. […] Single Crystal Data (LVL): Data were collected on a Bruker-Nonius CAD4 serial diffractometer. […] Intensities were measured using Cu Ka radiation (λ = 1.5418 A) at a constant temperature with the Θ-2Θ variable scan technique and were corrected only for Lorentz-polarization factors. […] Indexing and processing of the measured intensity data were carried out with the HKL2000 software package (Otwinowski, Z & Minor, W. (1997) in Macromolecular Crystallography, eds. Carter, W.C. Jr. & Sweet, R.M. (Academic, NY), Vol. 276, pp307-326) in the Collect program suite. […] Indexing and processing of the measured intensity data were carried out with the APEX2 software package/program suite (APEX2 Data collection and processing user interface: APEX2 User Manual, v1.27; BRUKER AXS, inc., Madison, WI). […]

[3] = Solid state stability study of Example 1 (hemisulfate salt, Form HI.5-1); assay type: physicochemical
Method: Stability Study: The solid state stability of Example lwas tested by exposing samples to various temperature and relative humidity conditions for periods of 1, 2, and 4 weeks. […] Table 4: Solid State Stability of Hemisulfate Salt, Form HI.5-1 ({drug6b}): […]

[4] = In vivo pharmacokinetics of Compound (VI) free base and hemisulfate salt capsules; settings: dogs; 150 mg capsule oral; famotidine pretreatment
Method: An aliquot of 0.050 mL of dog EDTA plasma was used for the assay. […] A 450 µï^ portion of the organic layer was removed and evaporated to dryness. The residue was reconstituted in 300 µl, of the reconstitution solution (30% acetonitrile in 10 mM NH40Ac with 0.01% acetic acid). All liquid transfer steps were performed using a Perkin Elmer JANUS Mini® liquid handler except for the addition of the internal standard solution. A 5 µï^ aliquot of the extracted sample was injected to uHPLC-MS/MS system. The uHPLC was performed on a LEAP 4X Ultra uHPLC system with LEAP HTC PAL autosampler. Mobile phase A contained 10 mM NH4OAc and 0.01% acetic acid in ACN/water (10:90), and mobile phase B contained 10 mM NH4OAc and 0.01% acetic acid in ACN/water (90: 10). […] The flow rate was 0.6 mL/min and column temperature was maintained at 60°C condition. Detection was accomplished using an AB Sciex Triple Quad 5500 mass spectrometer in positive ESI with turbo ion spray ionization and using multiple reaction monitoring (MRM) mode. […] Data acquisition and quantification were performed using AB Sciex Analyst® 1.5.1 software.

[5] = Stability in water slurry; assay type: physicochemical; settings: room temperature, after two days
Method: as §1

[6] = 1440 min
[7] = for Stability in water: 2 days at 50°C
Method: (§2) Hygroscopicity: Sorption/desorption isotherms were measured using the VT1100 humidity microbalance (VTI Corporation, Hialeah, FL, USA). Measurements were carried out at 25°C. Samples were dried under N2 flow at 25°C. […] Concentration in supernatant was measured by gravimetry for organic solvents and by HPLC from aqueous solvents and propylene glycol.

[8] = for water uptake at 5 % RH: 25°C
Method: as §2

[9] = 25 RH/ 60 °C (first such line, r3), 1 week
[10] = 25 RH/ 60 °C (first such line, r3), 2 weeks
[11] = 25 RH/ 60 °C (first such line, r3), 4 weeks
[12] = 25 RH/ 60 °C (first such line, r3), Initial
[13] = 25 RH/ 60 °C (second such line, r5), 1 week
[14] = 25 RH/ 60 °C (second such line, r5), 2 weeks
[15] = 25 RH/ 60 °C (second such line, r5), 4 weeks
[16] = 25 RH/ 60 °C (third such line, r6), 1 week
[17] = 25 RH/ 60 °C (third such line, r6), 2 weeks
[18] = 25 RH/ 60 °C (third such line, r6), 4 weeks

Compound: N[C@@H]1c2cccnc2[C@H](OC(=O)N2CCC(n3c(=O)[nH]c4ncccc43)CC2)CC[C@H]1c1cccc(F)c1F [Example 1, (5S,6S,9R)-5-Amino-6-(2,3-difluorophenyl)-6,7,8,9-tetrahydro-5H-cyclohepta[b]pyridin-9-yl 4-(2-oxo-2,3-dihydro-1H-imidazo[4,5-b]pyridin-1-yl) piperidine-1-carboxylate, Hemisulfate Salt]
- Relative stability (water activity) ([1]; versus Form P22C): more stable at > 23% relative humidity
- Relative stability (water activity) ([1]; versus Form P33): more stable at > 23% relative humidity
- moisture sorption weight gain ([2]; between 5% and 95% relative humidity): 2.8 weight %
- moisture sorption weight gain ([2]; between 25% and 75% relative humidity): 0.8 weight %
- % pot. [3, 9]: 94.4%
- % total imp. [3, 9]: 0.27%
- % pot. [3, 10]: 96.8%
- % total imp. [3, 10]: 0.27%
- % pot. [3, 11]: 96.9%
- % total imp. [3, 11]: 0.27%
- % pot. [3, 12]: 98.5%
- % total imp. [3, 12]: 0.27%
- % pot. [3, 13]: 95.1%
- % total imp. [3, 13]: 0.27%
- % pot. [3, 14]: 98.5%
- % total imp. [3, 14]: 0.27%
- % pot. [3, 15]: 97.0%
- % total imp. [3, 15]: 0.27%
- % pot. [3, 16]: 101.6%
- % total imp. [3, 16]: 0.28%
- % pot. [3, 17]: 102.6%
- % total imp. [3, 17]: 0.27%
- % pot. [3, 18]: 110.0%
- % total imp. [3, 18]: 0.27%
- % pot. ([3]; HIL/UV, 1 week): 100.7%
- % total imp. ([3]; HIL/UV, 1 week): 0.27%
- % pot. ([3]; HIL/UV, 2 weeks): 96.9%
- % total imp. ([3]; HIL/UV, 2 weeks): 0.27%
- % pot. ([3]; Refrigerated, 1 week): 98.0%
- % total imp. ([3]; Refrigerated, 1 week): 0.29%
- % pot. ([3]; Refrigerated, 2 weeks): 96.5%
- % total imp. ([3]; Refrigerated, 2 weeks): 0.27%
- % pot. ([3]; Refrigerated, 4 weeks): 105.7%
- % total imp. ([3]; Refrigerated, 4 weeks): 0.27%
- % pot. ([3]; Refrigerated, Initial): 98.5%
- % total imp. ([3]; Refrigerated, Initial): 0.27%
- Solid state stability ([3]; various temperature and relative humidity conditions, up to four weeks of storage): stable
- BA Mean [4]: 34.73%
- Chemical degradation in aqueous slurry [5]: no significant chemical degradation
- PXRD pattern after aqueous slurry [5]: no change in the PXRD pattern

Compound: N#Cc1ccc([C@H]2CCc3cncn32)c(F)c1 [nitrate salt, 4-(R)-(6,7-dihydro-5H-pyrrolo[1,2-c]imidazol-5-yl)-3-fluoro-benzonitrile]
- solubility ([6]; pH 1, 25°C): > 50 mg/mL
- Stability in water [7]: stable
- Solubility in water at the 0.1% target concentration ([7]; water): soluble
- water uptake at 5 % RH [8]: 0%
- Moisture gain ([8]; r.h. 0%): 0.0%
- Moisture gain ([8]; r.h. 5%): 0.0%
- Moisture gain ([8]; r.h. 25%): 0.1%
- Moisture gain ([8]; r.h. 50%): 0.2%
- Moisture gain ([8]; r.h. 75%): 0.2%
- Moisture gain ([8]; r.h. 85%): 0.2%
- Moisture gain ([8]; r.h. 95%): 0.2%

Compound: N#Cc1ccc([C@H]2CCc3cncn32)c(F)c1 [phosphate salt, 4-(R)-(6,7-dihydro-5H-pyrrolo[1,2-c]imidazol-5-yl)-3-fluoro-benzonitrile]
- solubility ([6]; pH 6.8, 25°C): > 50 mg/mL
- Stability in water [7]: stable
- water uptake at 5 % RH [8]: 0%
- Moisture gain ([8]; r.h. 0%): 0.0%
- Moisture gain ([8]; r.h. 5%): 0.0%
- Moisture gain ([8]; r.h. 25%): 0.1%
- Moisture gain ([8]; r.h. 50%): 0.1%
- Moisture gain ([8]; r.h. 75%): 0.2%
- Moisture gain ([8]; r.h. 85%): 0.3%
- Moisture gain ([8]; r.h. 95%): 0.8%
